Data: patent publication US11015223B2, “Methods for determining response to a hypomethylating agent” (THE REGENTS OF THE UNIVERSITY OF CALIFORNIA, priority 2013, dated 2021)

Test system: MDS patients
Assay: Response to treatment by IWG response criteria revised in 2006 (CR/PR/HI = responders)
Format: in vivo, human
Source text: A total of 213 MDS patients treated azacitidine or decitabine were included in this study. Samples were obtained from patients treated at the Dana-Farber Cancer Institute (n=42), the MD Anderson Cancer Center (n=104), and as part of the DACO-020 (ADOPT) clinical trial of decitabine (n=67). All samples were collected with patient consent under IRB-approved protocols in accordance with the Declaration of Helsinki. There were no significant differences in baseline patient characteristics by treatment site (Table 1).
Response to treatment was assessed using IWG response criteria revised in 2006. Patients with either a complete response (CR), partial response (PR), or hematologic improvement (HI) were considered as ‘responders’ (R, n=100, 47%). whereas patients described as having ‘no response’, ‘stable disease’, ‘progressive disease’, ‘death’ before response assessment, or ‘not evaluable’ were considered ‘non-responders’ (NR, […], 53%).
Categorical variables were compared using a Fisher exact test, while continuous variables were compared using a Wilcoxon rank-sum test. A Cochran-Mantel-Haenszel (CMH) test was used to test for differences in response rate by mutational status controlling for treatment. Unadjusted and adjusted logistic regression models were used to predict response to therapy. A stepwise algorithm for logistic regression was also utilized to determine a final model; candidate variables considered for inclusion were all mutations, treatment, IPSS classification, age, and sex. The Hosmer and Lemeshow goodness-of-fit test was used to assess model fit for logistic regression models. Overall survival was calculated from the time of treatment to the time of death from any cause or was censored at the date last known alive. Unadjusted and adjusted Cox regression models were constructed for overall survival. A stepwise regression algorithm for Cox regression models was used including the same candidate variables as in the logistic regression modeling. Classification trees were also created using the Rpart package in R version 2.11.1 to classify responders based on mutational status. Cross-validation was used for tree pruning. All p-values reported are two-sided and considered significant at the 0.05 level. No adjustments were made for multiple hypothesis testing.

For Decitabine+, the “Non-Responders (NR/SD/PD/Died/NE) (%)” value (all patients on the treatment) was “(56) %”, the “Non-Responders (NR/SD/PD/Died/NE) N” value (all patients on the treatment) was 15 N and the “Responders (CR/PR/HI) (%)” value (all patients on the treatment) was “(44) %”. For the same substance, the “Responders (CR/PR/HI) N” value (all patients on the treatment) was 12 N, the “Responders (CR/PR/HI) (%)” value (all patients on the treatment, listed as Dec Plus) was 44% and the “Response (%)” value (patients with ASXL1 mutation) was 50%. The “Response N” value (patients with ASXL1 mutation) was 3 N, the “Response (%)” value (patients with ATRX mutation) was 100% and the “Response N” value (patients with ATRX mutation) was 1 N. The “Response (%)” value (patients with BCOR mutation) was 50%, the “Response N” value (patients with BCOR mutation) was 1 N and the “Response (%)” value (patients with CBL mutation) was 0 (0) %. The “Response N” value (patients with CBL mutation) was 0 (0) N, the “Response (%)” value (patients with DNMT3A mutation) was 67% and the “Response N” value (patients with DNMT3A mutation) was 4 N. For the same substance, the “Response (%)” value (patients with ETV6 mutation) was 0 (0) %, the “Response N” value (patients with ETV6 mutation) was 0 (0) N and the “Response (%)” value (patients with EZH2 mutation) was 0 (0) %. The “Response N” value (patients with EZH2 mutation) was 0 (0) N, the “Response (%)” value (patients with IDH1 mutation) was 0 (0) % and the “Response N” value (patients with IDH1 mutation) was 0 (0) N. For the same substance, the “Response (%)” value (patients with IDH2 mutation) was 0 (0) %, the “Response N” value (patients with IDH2 mutation) was 0 (0) N and the “Response (%)” value (patients with JAK2 mutation) was 0 (0) %. For the same substance, the “Response N” value (patients with JAK2 mutation) was 0 (0) N, the “Response (%)” value (patients with KDM3A mutation) was 0 (0) % and the “Response N” value (patients with KDM3A mutation) was 0 (0) N. The “Response (%)” value (patients with KDM6B mutation) was 100%, the “Response N” value (patients with KDM6B mutation) was 3 N and the “Response (%)” value (patients with KRAS mutation) was 0 (0) %. The “Response N” value (patients with KRAS mutation) was 0 (0) N, the “Response (%)” value (patients with MAML1 mutation) was 75% and the “Response N” value (patients with MAML1 mutation) was 3 N. For the same substance, the “Response (%)” value (patients with NF1 mutation) was 50%, the “Response N” value (patients with NF1 mutation) was 1 N and the “Response (%)” value (patients with NOTCH1 mutation) was 0 (0) %. For the same substance, the “Response N” value (patients with NOTCH1 mutation) was 0 (0) N, the “Response (%)” value (patients with NOTCH2 mutation) was 100% and the “Response N” value (patients with NOTCH2 mutation) was 5 N. The “Response (%)” value (patients with NPM1 mutation) was 100%, the “Response N” value (patients with NPM1 mutation) was 1 N and the “Response (%)” value (patients with NRAS mutation) was 50%. For the same substance, the “Response N” value (patients with NRAS mutation) was 1 N, the “Response (%)” value (patients with PHF6 mutation) was 0 (0) % and the “Response N” value (patients with PHF6 mutation) was 0 (0) N. For the same substance, the “Response (%)” value (patients with PRPF8 mutation) was 0 (0) %, the “Response N” value (patients with PRPF8 mutation) was 0 (0) N and the “Response (%)” value (patients with PTPN11 mutation) was 67%. The “Response N” value (patients with PTPN11 mutation) was 2 N, the “Response (%)” value (patients with RUNX1 mutation) was 75% and the “Response N” value (patients with RUNX1 mutation) was 3 N. The “Response (%)” value (patients with SCAF11 mutation) was 100%, the “Response N” value (patients with SCAF11 mutation) was 2 N and the “Response (%)” value (patients with SF3B1 mutation) was 50%. The “Response N” value (patients with SF3B1 mutation) was 2 N, the “Response (%)” value (patients with SRSF2 mutation) was 50% and the “Response N” value (patients with SRSF2 mutation) was 2 N. For the same substance, the “Response (%)” value (patients with TET2 mutation) was 80%, the “Response N” value (patients with TET2 mutation) was 4 N and the “Response (%)” value (patients with TLR1 mutation) was 67%. For the same substance, the “Response N” value (patients with TLR1 mutation) was 2 N, the “Response (%)” value (patients with TP53 mutation) was 42% and the “Response N” value (patients with TP53 mutation) was 5 N. For the same substance, the “Response (%)” value (patients with U2AF1 mutation) was 0 (0) %, the “Response N” value (patients with U2AF1 mutation) was 0 (0) N and the “Response (%)” value (patients with ZRSR2 mutation) was 0 (0) %. For the same substance, the “Response N” value (patients with ZRSR2 mutation) was 0 (0) N.
